Data reported in patent US11591341B2 (ALIGOS THERAPEUTICS, INC., priority 2019, dated 2023).
Like-named read-outs stand apart in the source and are kept apart here.

System: HBV
Assay: HBV-DNA Antiviral Assay Using HepG2.117 Cells (intracellular HBV DNA by qPCR)
Type: cell-based, hepatitis B virus (genotype D)
Outline: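 HepG2.117 cells (genotype D HBV, Tet-off) were induced by doxycycline withdrawal and treated for 3 days with 9 concentrations in 4-fold dilution, 2% DMSO final. Intracellular HBV DNA was measured by qPCR against a standard curve, with ATPlite viability read in parallel. EC50, EC90 and CC50 came from fits against the DMSO control.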

Row | Compound | EC50 (Hepatitis B virus, HepG2.117) [nM] | EC50 (HBV DNA inhibition, HepG2.117 cells, intracellular HBV DNA by qPCR (Table 4), read-out: EC50) [nM]
1 | Cc1ccn(-c2ccc(-n3c(C(=O)NCc4ccccc4)c4n(c3=O)CCN(C(=O)c3ccc(Br)c(Cl)c3)C4)cc2)n1 [Example 455, N-benzyl-7-(4-bromo-3-chloro-benzoyl)-2-[4-(3-methylpyrazol-1-yl)phenyl]-3-oxo-6,8-dihydro-5H-imidazo[1,5-a]pyrazine-1-carboxamide] | 100 to 500 | –
2 | CO[C@H]1CN(Cc2ccccc2)Cc2c3n(c(=O)n2C1)CCN(C(=O)c1ccc(Br)c(Cl)c1)C3 (stereo in doubt) [Example 310, rac-(11S)-13-benzyl-4-(4-bromo-3-chloro-benzoyl)-11-methoxy-4,7,9,13-tetrazatricyclo[7.5.0.0^2,7]tetradec-1-ene-8,14-dione] | 100 to 500 | –
3 | C[C@H](NC(=O)c1c2n(c(=O)n1C)CCN(C(=O)c1ccc(Br)c(Cl)c1)C2)c1ccccc1 (stereo in doubt) [Example 112, 7-(4-bromo-3-chloro-benzoyl)-2-methyl-3-oxo-N-[rac-(1S)-1-phenylethyl]-6,8-dihydro-5H-imidazo[1,5-a]pyrazine-1-carboxamide] | > 5000 | –
4 | C[C@H](NC(=O)c1c2n(c(=O)n1-c1ccc(OC3COC3)cc1)CCN(C(=O)c1ccc(Br)c(Cl)c1)C2)c1ccccc1 (stereo in doubt) [Example 169, 7-(4-bromo-3-chloro-benzoyl)-2-[4-(oxetan-3-yloxy)phenyl]-3-oxo-N-[rac-(1S)-1-phenylethyl]-6,8-dihydro-5H-imidazo[1,5-a]pyrazine-1-carboxamide] | 500 to 5000 | –
5 | COc1ccc(-n2c(C(=O)NCc3ccc(=O)[nH]c3)c3n(c2=O)CCN(C(=O)c2ccc(Br)c(Cl)c2)C3)cc1 [Example 192, 7-(4-bromo-3-chloro-benzoyl)-2-(4-methoxyphenyl)-3-oxo-N-[(6-oxo-1H-pyridin-3-yl)methyl]-6,8-dihydro-5H-imidazo[1,5-a]pyrazine-1-carboxamide] | > 5000 | –
6 | COc1ccc(-n2c(C(=O)NCc3ccc(C)c(OC)c3)c3n(c2=O)CCN(C(=O)c2ccc(Cl)c(Cl)c2)C3)cc1 [Example 90, 7-(3,4-dichlorobenzoyl)-N-[(3-methoxy-4-methyl-phenyl)methyl]-2-(4-methoxyphenyl)-3-oxo-6,8-dihydro-5H-imidazo[1,5-a]pyrazine-1-carboxamide] | 500 to 5000 | –
7 | NC(=O)c1cccc(-n2c(C(=O)NCc3ccccc3)c3n(c2=O)CCN(C(=O)c2ccc(Br)c(Cl)c2)C3)c1 [Example 35, N-benzyl-7-(4-bromo-3-chloro-benzoyl)-2-(3-carbamoylphenyl)-3-oxo-6,8-dihydro-5H-imidazo[1,5-a]pyrazine-1-carboxamide] | > 5000 | –
8 | COc1ccc(-n2c(C(=O)N[C@H](C)c3ccc(Br)cc3)c3n(c2=O)CCN(C(=O)c2ccc(Br)c(Cl)c2)C3)cc1 (racemic) [Example 145, 7-(4-bromo-3-chloro-benzoyl)-2-(4-methoxyphenyl)-3-oxo-N-[rac-(1R)-1-(4-bromophenyl)ethyl]-6,8-dihydro-5H-imidazo[1,5-a]pyrazine-1-carboxamide] | 100 to 500 | –
9 | CC1Cn2c(c(C(=O)N[C@@H](C)c3ccccc3F)n(-c3ccc(OC4CC4)cc3)c2=O)CN1C(=O)c1ccc(Br)c(Cl)c1 (mixture of isomers) [Example 334, (6SR)-7-(4-bromo-3-chloro-benzoyl)-2-[4-(cyclopropoxy)phenyl]-N-[(1S)-1-(2-fluorophenyl)ethyl]-6-methyl-3-oxo-6,8-dihydro-5H-imidazo[1,5-a]pyrazine-1-carboxamide] | 100 to 500 | –
10 | 13-benzyl-4-(4-bromo-3-chloro- benzoyl)-11-methylene-4,7,9,13- tetrazatricyclo[7.5.0.0^2,7]tetradec-1- ene-8.14-dione [Example 109] | – | 100 to 500
11 | CC1Cn2c(c(C(=O)NCc3ccccc3-n3cc(F)cn3)n(-c3ccc(OC4CC4)cc3)c2=O)CN1C(=O)c1ccc(Br)c(Cl)c1 (racemic) [Example 440, rac-(6S)-7-(4-bromo-3-chloro-benzoyl)-2-[4-(cyclopropoxy)phenyl]-N-[[2-(4-fluoropyrazol-1-yl)phenyl]methyl]-6-methyl-3-oxo-6,8-dihydro-5H-imidazo[1,5-a]pyrazine-1-carboxamide] | < 100 | –
12 | COc1ccc(-n2c(-c3ncc(Cc4ccccc4)o3)c3n(c2=O)CCN(C(=O)c2ccc(Br)c(Cl)c2)C3)cc1 [Example 86] | 500 to 5000 | –
13 | Cc1c(C(=O)N2CCn3c(c(C(=O)NCc4ccccc4)n(-c4ccc(OC5CC5)cc4)c3=O)C2)ccc(Br)c1Cl [Example 462, N-benzyl-7-(4-bromo-3-chloro-2-methyl-benzoyl)-2-[4-(cyclopropoxy)phenyl]-3-oxo-6,8-dihydro-5H-imidazo[1,5-a]pyrazine-1-carboxamide] | 500 to 5000 | –
14 | O=C(NCc1ccccc1-c1ncco1)c1c2n(c(=O)n1-c1ccc(OCC(F)(F)F)cc1)CCN(C(=O)c1ccc(Br)c(Cl)c1)C2 [Example 375, 7-(4-bromo-3-chloro-benzoyl)-N-[(2-oxazol-2-ylphenyl)methyl]-3-oxo-2-[4-(2,2,2-trifluoroethoxy)phenyl]-6,8-dihydro-5H-imidazo[1,5-a]pyrazine-1-carboxamide] | 100 to 500 | –
15 | COc1ccc(CNC(=O)c2c3n(c(=O)n2-c2ccccc2)CCN(C(=O)c2ccc(Br)c(Cl)c2)C3)c(C)c1 [Example 39, 7-(4-bromo-3-chloro-benzoyl)-N-[(4-methoxy-2-methyl-phenyl)methyl]-3-oxo-2-phenyl-6,8-dihydro-5H-imidazo[1,5-a]pyrazine-1-carboxamide] | 100 to 500 | –
16 | O=C(NCc1ccccc1-c1ncc[nH]1)c1c2n(c(=O)n1-c1ccc(OCC(F)(F)F)cc1)CCN(C(=O)c1ccc(Br)c(Cl)c1)C2 [Example 425, 7-(4-bromo-3-chloro-benzoyl)-N-[[2-(1H-imidazol-2-yl)phenyl]methyl]-3-oxo-2-[4-(2,2,2-trifluoroethoxy)phenyl]-6,8-dihydro-5H-imidazo[1,5-a]pyrazine-1-carboxamide] | < 100 | –
17 | O=C(NCc1ccccc1-c1ncccn1)c1c2n(c(=O)n1-c1ccc(OCC(F)(F)F)cc1)CCN(C(=O)c1ccc(Br)c(Cl)c1)C2 [Example 377, 7-(4-bromo-3-chloro-benzoyl)-3-oxo-N-[(2-pyrimidin-2-ylphenyl)methyl]-2-[4-(2,2,2-trifluoroethoxy)phenyl]-6,8-dihydro-5H-imidazo[1,5-a]pyrazine-1-carboxamide] | < 100 | –
18 | COc1cccc(C)c1CNC(=O)c1c2n(c(=O)n1-c1ccc(OCC(F)(F)F)cc1)CCN(C(=O)c1ccc(Br)c(Cl)c1)C2 [Example 259, 7-(4-bromo-3-chloro-benzoyl)-N-[(2-methoxy-6-methyl-phenyl)methyl]-3-oxo-2-[4-(2,2,2-trifluoroethoxy)phenyl]-6,8-dihydro-5H-imidazo[1,5-a]pyrazine-1-carboxamide] | 100 to 500 | –
19 | C[C@@H](NC(=O)c1c2n(c(=O)n1-c1ccc(OC3CC3)cc1)CCN(C(=O)c1ccc(Br)c(Cl)c1)C2)c1ccc(OCC#N)cc1F (stereo in doubt) [Example 342, 7-(4-bromo-3-chloro-benzoyl)-2-[4-(cyclopropxy)phenyl]-3-oxo-N-[rac-(1R)-1-[4-(cyanomethoxy)-2-fluoro-phenyl]ethyl]-6,8-dihdyro-5H-imidazo[1,5-a]pyrazine-1-carboxamide] | 100 to 500 | –
